Results as given in patent US9170253B2, “Method and device for measuring multiple physiological properties of cells” (Seahorse Bioscience, priority 2003, dated 2015).

Assays:
C2C12 Myoblasts [1] = assay: Effect of 2,4 DNP on O2, CO2 and pH flux rates of C2C12 myoblasts (prototype enclosed sample chamber); type: cell-based, murine; conditions: for CO2 Rate / O2 Rate / pH Rate: 20 minute measurement
Text: (§1) The device included a cylindrical vessel, fabricated from polycarbonate material, and designed to receive a 12 mm diameter, polycarbonate membrane assembly (Corning Snapwell™ P/N 3802) with a pore size of approximately 3 μm. A cylindrical polycarbonate cover could be temporarily inserted into the vessel to form a smaller sample chamber, approximately 1.5 mm high, with a volume of about 160 microliter (μl). A series of bores around the perimeter of the vessel allowed the insertion of three 500 μm diameter optical fibers. The distal tip of each optical fiber was coated with a fluorescent sensing material to form a biosensor.
(§2) The three biosensors were designed to measure the partial pressures of O2 and CO2, and the pH of the media contained within the vessel. One fiber tip was coated with a matrix of Ruthenium dyes, encapsulated in oxygen permeable silicone rubber, to provide a readout of dissolved oxygen concentration. A second fiber tip was coated with a complex of Fluoroscene dye encapsulated in silicone rubber, to provide a readout of H^+ ion concentration (pH). A third biosensor was fabricated by using a CO2 permeable membrane to create a small reservoir of NaHCO3 surrounding a HydroxyPyrene Trisodium Salt (HPTS) pH sensitive dye. A change in CO2 concentration in the cell media would then cause a change in pH of this encapsulated reagent resulting in a measurable change in the fluorescent properties of the pH sensitive dye, and this change was calibrated to provide quantitative CO2 concentration data.
(§3) To determine the extracellular flux rates of O2 and CO2, the rates of change of partial pressures were divided by volume of each analytes available in the media (moles) to result in a value expressed in nmol/minute. The rate of acidification was expressed in mpH units/min (multiplied by 20 for scaling on the chart), but can easily be shown as protons per minute by calculating the number of available […] in the media buffer within the known sample volume.
In this experiment, C2C12 myoblasts were seeded on 12 mm diameter polycarbonate membranes and incubated for 12 hours. Wells were then removed from the incubator, inspected visually, and placed into the measurement device. 160 μl of NaHCO3-free DMEM medium was then added, and the device was assembled to form an enclosed sample chamber.
(§4) The dissolved concentrations of O2 and CO2, and the pH in the media were then measured every 5 seconds for a period of 20 minutes in order to determine a control baseline for each analyte flux. Once the baseline was established, a sequence of experiments were performed where varying doses of 2,4 DNP (obtained from Sigma, St. Louis Mo.) were added to the cell media and a 20 minute measurement of analyte flux rates was performed. A control experiment was also performed using the highest dose of 2,4 DNP, but without cells.

C2C12 Myoblasts [2] = assay: Effect of Rotenone on O2, CO2 and pH flux rates of C2C12 myoblasts (prototype enclosed sample chamber); type: cell-based, murine; set-up: key to O2 Rate / CO2 Rate: flux rate in nmol/minute; conditions: for CO2 Rate / O2 Rate / pH Rate: 20 minute measurement
Text: as §1, §2, §3
Rotenone is known to inhibit cellular respiration by blocking NADH dehydrogenase in the respiratory chain. C2C12 Myoblasts were used to show this effect. 1.5×10^5 C2C12 myoblasts were seeded on membranes, incubated and placed in the measurement system along with 150 μl NaHCO3-free DMEM medium of as described in Example 3.
as §4, with “Rotenone” for “2,4 DNP”, “Rotenone,” for “2,4 DNP,”

CHO-M3 cells = assay: Effect of carbachol on O2 consumption, CO2 production and extracellular acidification rates of CHO-M3 cells (stop flow cycles); type: cell-based, Chinese hamster
Text: Chinese hamster ovary (CHO) cells were transfected to over-express the muscarinic receptor subtype m3. The prototype device described in Example 1 was then used to monitor O2 consumption, CO2 production, and extracellular acidification rates, following treatment with the well-known, general acetylcholine receptor agonist, Carbachol.
Materials and Methods: Cell culture reagents were obtained from Gibco BRL (Grand Island, N.Y.). Carbachol was purchased from Sigma Chemical Co. (St. Louis, Mo.). Bicarbonate-free DMEM medium was obtained from Specialty Media (Phillipsburg, N.J.). Polycarbonate membrane snapwells (12 mm diameter, 3 μm pore size) were obtained from Corning (Corning, N.Y.). CHO cells expressing m3-muscarinic receptors (CHO-M3 cells) were obtained from the American Type Tissue Culture (ATCC; Manassas, Va.). Cells were cultured in Ham's F-12 medium supplemented with 10% fetal bovine serum (Hyclone), 1% GlutaMax and 0.1% Gentamicin and were maintained in a 5% CO2 incubator. Cells were subcultured when they reached 80% confluency. CHO-M3 cells were seeded at a density of 2×10^5 onto a snapwell 24 hours prior to use. Immediately prior to testing, cells on snapwells were switched to bicarbonate-free DMEM medium combined with 3.7 g/l NaCl to maintain osmolarity (medium pH 7.4-7.5).
Protocol Description: Probes were calibrated immediately prior to testing. The bottom of the test vessel was filled with bicarbonate-free medium. The snapwell was removed from a 5% CO2 incubator, and the regular growth medium (Ham's F-12) was replaced with bicarbonate-free DMEM medium. Thereafter, the snapwell was placed into the test vessel. Bicarbonate-free medium was pipetted onto the top of the snapwell, and the cover piece of the test vessel was placed gently on top of the snapwell and screwed into place, compressing the assembly. The probe software was started, and the pH, CO2 and O2 analytes were measured over the next 3.5 hours. Following the initial 1.5 hours of perfusion at a rate of 78 μl/min, a series of stop flow (10 minutes each) and medium re-perfusion (10 minutes each, 78 μl/min) cycles were started. During the last 2 minutes of medium re-perfusion cycle number 5, 100 μM carbachol was perfused across the snapwell. During re-perfusion number 6, bicarbonate-free DMEM medium was once again perfused across the snapwell. A rate of change for the analytes was calculated during each stop flow cycle.
The first four series of perfusion/stop flow cycles were done to establish a noise band on the three analytes prior to carbachol treatment during perfusion number 5. Bicarbonate-free medium re-perfusion during per perfusion number 6 and the rates calculated during stop flow number 6 were to assess potential continuing post-carbachol treatment effects on analytes' rates. Resulting data are shown below in Table 6 and in FIG. 11.

[3] = Rotenone dose 25 (unit not given)
[4] = Rotenone dose 50 (unit not given)
[5] = Rotenone dose 100 (unit not given)
[6] = Rotenone dose 200 (unit not given)
[7] = Stop Flow 5, after 2-minute exposure to 100 μM carbachol
[8] = Stop Flow 6, post-carbachol, after re-perfusion with bicarbonate-free medium

`O=[N+]([O-])c1ccc(O)c([N+](=O)[O-])c1` [2,4 DNP] was tested, and the CO2/O2 (C2C12 Myoblasts [1]; 2,4 DNP dose 10 μm) was 2.18, the O2/pH (C2C12 Myoblasts [1]; 2,4 DNP dose 10 μm) was 0.46 and the “CO2 Rate” value (C2C12 Myoblasts [1]; 2,4 DNP dose 10 μm) was 2.78 nM/min. For the same compound, the “O2 Rate” value (C2C12 Myoblasts [1]; 2,4 DNP dose 10 μm) was 1.26 nM/min, the “pH Rate” value (C2C12 Myoblasts [1]; 2,4 DNP dose 10 μm) was 0.028 pH/min and the CO2/O2 (C2C12 Myoblasts [1]; 2,4 DNP dose 50 μm) was 2.13. For the same compound, the O2/pH (C2C12 Myoblasts [1]; 2,4 DNP dose 50 μm) was 0.64, the “CO2 Rate” value (C2C12 Myoblasts [1]; 2,4 DNP dose 50 μm) was 4.24 nM/min and the “O2 Rate” value (C2C12 Myoblasts [1]; 2,4 DNP dose 50 μm) was 1.99 nM/min. The “pH Rate” value (C2C12 Myoblasts [1]; 2,4 DNP dose 50 μm) was 0.031 pH/min, the CO2/O2 (C2C12 Myoblasts [1]; 2,4 DNP dose 100 μm) was 2.00 and the O2/pH (C2C12 Myoblasts [1]; 2,4 DNP dose 100 μm) was 0.73. For the same compound, the “CO2 Rate” value (C2C12 Myoblasts [1]; 2,4 DNP dose 100 μm) was 4.59 nM/min, the “O2 Rate” value (C2C12 Myoblasts [1]; 2,4 DNP dose 100 μm) was 2.30 nM/min and the “pH Rate” value (C2C12 Myoblasts [1]; 2,4 DNP dose 100 μm) was 0.032 pH/min. For the same compound, the “O2 consumption rates (effect of treatment)” value (C2C12 Myoblasts [1]; over doses of Table 3) was “dose-dependent increase” and the “extracellular acidification (effect of treatment)” value (C2C12 Myoblasts [1]; over doses of Table 3) was “little effect”.

For `C=C(C)[C@H]1Cc2c(ccc3c2O[C@@H]2COc4cc(OC)c(OC)cc4[C@@H]2C3=O)O1` [Rotenone], the CO2/O2 (C2C12 Myoblasts [2]; [3]) was 4.00, the O2/pH (C2C12 Myoblasts [2]; [3]) was 0.17 and the “CO2 Rate” value (C2C12 Myoblasts [2]; [3]) was 1.76. For the same compound, the “O2 Rate” value (C2C12 Myoblasts [2]; [3]) was 0.44, the “pH Rate” value (C2C12 Myoblasts [2]; [3]) was 0.026 and the CO2/O2 (C2C12 Myoblasts [2]; [4]) was 8.02. For the same compound, the O2/pH (C2C12 Myoblasts [2]; [4]) was 0.08, the “CO2 Rate” value (C2C12 Myoblasts [2]; [4]) was 2.08 and the “O2 Rate” value (C2C12 Myoblasts [2]; [4]) was 0.26. For the same compound, the “pH Rate” value (C2C12 Myoblasts [2]; [4]) was 0.031, the CO2/O2 (C2C12 Myoblasts [2]; [5]) was 12.18 and the O2/pH (C2C12 Myoblasts [2]; [5]) was 0.09. The “CO2 Rate” value (C2C12 Myoblasts [2]; [5]) was 2.34, the “O2 Rate” value (C2C12 Myoblasts [2]; [5]) was 0.19 and the “pH Rate” value (C2C12 Myoblasts [2]; [5]) was 0.023. The CO2/O2 (C2C12 Myoblasts [2]; [6]) was 69.84, the O2/pH (C2C12 Myoblasts [2]; [6]) was 0.02 and the “CO2 Rate” value (C2C12 Myoblasts [2]; [6]) was 2.24. The “O2 Rate” value (C2C12 Myoblasts [2]; [6]) was 0.04, the “pH Rate” value (C2C12 Myoblasts [2]; [6]) was 0.027 and the “O2 consumption rate (effect of treatment)” value (C2C12 Myoblasts [2]; over doses of Table 4) was “dose-dependent decrease”.

`C[N+](C)(C)CCOC(N)=O` [carbachol, Carbachol] was tested, and the “CO2 rate versus baseline” value (CHO-M3 cells; 2-minute exposure to carbachol) was “increases above baseline levels”, the “O2 rate versus baseline” value (CHO-M3 cells; 2-minute exposure to carbachol) was “increases above baseline levels” and the “change in pH rate versus average baseline” value (CHO-M3 cells; 2-minute exposure to carbachol, 0.01 PHU/min baseline) was “doubling”. For the same compound, the CO2 Rate (CHO-M3 cells; [7]) was 0.20 nmol/min, the “O2/CO2 Ratio” value (CHO-M3 cells; [7]) was 1.99 and the “O2/pH Ratio” value (CHO-M3 cells; [7]) was 0.26. For the same compound, the O2 Rate (CHO-M3 cells; [7]) was 0.40 nmol/min, the pH Rate (CHO-M3 cells; [7]) was 0.02 PHU/min and the CO2 Rate (CHO-M3 cells; [8]) was 0.10 nmol/min. The “O2/CO2 Ratio” value (CHO-M3 cells; [8]) was 3.34, the “O2/pH Ratio” value (CHO-M3 cells; [8]) was 0.29 and the O2 Rate (CHO-M3 cells; [8]) was 0.33 nmol/min. The pH Rate (CHO-M3 cells; [8]) was 0.01 PHU/min and the “Post-treatment rates versus pre-treatment values” (CHO-M3 cells; stop flow period number 6) was “essentially returned to pre-treatment values”.
